Results as given in patent US11071775B2, “Combination immunotherapy for treating cancer” (H. Lee Moffitt Cancer Center and Research Institute, Inc., priority 2015, dated 2021).
Like-named read-outs stand apart in the source and are kept apart here.

How the values were obtained:
[1] = system: MDSCs; assay: ATRA in patients with metastatic renal cell carcinoma: MDSC and DC; format: in vivo, human
[2] = system: human MDSCs; settings: in vitro; cited from earlier work
[3] = system: Gr-1+ cells; settings: in vitro; cited from earlier work
[4] = system: Retinoid Acid Receptor (RAR) and Retinoid X Receptor (RXR); settings: cited from earlier work
[5] = system: Gr-1+ cells; settings: tumor-bearing mice, cited from earlier work
[6] = system: MDSC; assay: Randomized phase II study: proportion of MDSC before and after immunization; format: in vivo, human
Experimental: To assess immune response, PBMCs were collected from patients at different time points during the treatment (FIG. 4) and kept frozen in liquid nitrogen. All samples from one patient were analyzed simultaneously to reduce inter-experimental variability. PBMCs were thawed, incubated overnight in complete medium (RPMI-1640 supplemented with antibiotics and 10% FBS) and then used in experiments. Cell viability was greater than 80%.

[7] = system: ES-SCLC; assay: Randomized phase II study in ES-SCLC (NCT00617409): objective response and survival; format: in vivo, human; settings: arm A (observation, no vaccine)
Text: Patients with ES-SCLC were enrolled to this randomized phase II study. […] After receiving initial chemotherapy, (4-6 cycles of a standard platinum/etoposide regimen as first-line chemotherapy), patients were enrolled and randomized. Additional eligibility included; stable disease (SD) or better with Eastern Cooperative Oncology Group (ECOG) performance status of 0 to 1, and adequate organ function were screened for initial registration approximately 4-6 weeks after the completion of first-line chemotherapy. Prophylactic cranial irradiation (PCI) was permitted.
Each vaccine consisted of 2-5×10^6 Ad-p53 DCs. Cells were injected intradermally, at two-week intervals for three times (three vaccine doses). Patients were restaged approximately 2 weeks after the 3rd vaccine dose. Patients without signs of disease progression (PD) underwent a second leukapheresis and then vaccinated 3 more times at 4-week intervals. Patients on Arm C also received 150 mg/m^2 ATRA for 3 days prior to each vaccine administration (followed by vaccine administration on the next day).
All patients were followed until evidence of PD at which time they received salvage or second line chemotherapy with single agent paclitaxel (200 mg/m2 IV every 3 weeks, 4-6 cycles).
The primary objective was to evaluate the efficacy of second line paclitaxel in the two experimental regimens (Arms B and C). […]

[8] = system: PD-L1 expressing or negative tumors; settings: cited from earlier work; for overall response rate (ORR): all patients
[9] = 38 patients; cited from earlier work
[10] = cited from earlier work
[11] = system: advanced stage NSCLC; settings: cited from earlier work

For `CC1=C(/C=C/C(C)=C/C=C/C(C)=C/C(=O)O)C(C)(C)CCC1` [ATRA, all-trans-retinoic acid], the MDSC/DC ratio [1] is listed as “improved MDSC/DC ratio to control levels”, the “presence of MDSC” value [1] is listed as “significantly decreased the presence of MDSC” and the “fraction of MDSCs becoming DC-like” value [2] is listed as “⅔”. The “fraction of MDSCs becoming myeloid” value [2] was “⅓”, the “differentiation and immunosuppressive effect of Gr-1+ cells” value [3] was “differentiates these cells in vitro and removes their immunosuppressive effect” and the “relative affinity for RAR and RXR” value [4] was “higher affinity to RAR”. For the same compound, the “presence of Gr-1+ cells” value ([5]; in vivo administration) was “dramatically reduces the presence of Gr-1^+ cells”, the “effect of tumor vaccines” value [5] was “improves the effect of tumor vaccines” and the “proportion of CD11b+CD14−CD33+ MDSC” value ([6]; patients treated with ATRA (arm C), p=0.03) was “decreased less dramatically but also significantly”. The “presence of Lin−HLA-DR−CD33+ MDSC” value ([6]; patients treated with ATRA (arm C: vaccine plus 150 mg/m2 ATRA), p=0.02) was “decreased more than two-fold”.

With `CC(=O)O[C@H]1C(=O)[C@@]2(C)[C@H]([C@H](OC(=O)c3ccccc3)[C@]3(O)C[C@H](OC(=O)[C@H](O)[C@@H](NC(=O)c4ccccc4)c4ccccc4)C(C)=C1C3(C)C)[C@]1(OC(C)=O)CO[C@@H]1C[C@@H]2O` [paclitaxel] the “OR to paclitaxel (or other second line treatment)” value [7] was 1/11.

In the case of “MK-3475: humanized monoclonal antibody of the IgG4/kappa isotype blocking the interaction between PD-1 and its ligands”, the ORR ([8]; PD-L1 expressing tumors, RECIST, (16-30%)) is listed as 23%, the ORR ([8]; PD-L1 expressing tumors, irRC, 95% CI 14-26%) is listed as 19% and the ORR ([8]; PD-L1 negative tumors, RECIST, (2-23%)) is listed as 9%. The ORR ([8]; PD-L1 negative tumors, irRC, 95% CI 4-27%) was 13%, the “overall response rate (ORR)” value ([8]; RECIST v1.1, 95% CI 15-26%) was 20% and the “overall response rate (ORR)” value ([8]; irRC, 10 mg/kg Q2W or Q3W, 95% CI 13-24%) was 18%. The drug-related deaths [9] was “no drug-related deaths”, the “grade 3/4 event (grade 3 pulmonary edema)” value [9] was “one” and the “patients who developed grade 3/4 pneumonitis” value ([10]; 2 patients in each schedule) was “Four”. The “drug-related adverse event: arthralgia” value ([10]; 217 patients) was 6.1%, the “drug-related adverse event: pruritis” value ([10]; 217 patients) was 5.4% and the “drug-related adverse event: pyrexia” value ([10]; 217 patients) was 3.6%. The “patients with grade 3/4 drug-related adverse events” value ([10]; 217 patients) was “Six”, the “patients responding to therapy” value ([11]; PD-L1 high tumors, Six of 9, 95% CI 30-93%) was 67% and the “patients responding to therapy” value ([11]; PD-L1 low tumors, 0/22, 95% CI 0-15%) was 0%. For the same compound, the “overall objective response rate” value ([11]; investigator-assessed irRC, 38 patients) was 24%.
